Experimental data: patent publication US20250282760A1 (Merck Sharp & Dohme LLC, priority 2022, published 2025)

Biological target: T1, human OX2R (Homo sapiens, UniProt O43614)
T1 construct: expressed in transfected cells; host or cells: Chinese hamster ovary (CHO) cells, kept under G418 selection
T1 sequence (O43614 1-444): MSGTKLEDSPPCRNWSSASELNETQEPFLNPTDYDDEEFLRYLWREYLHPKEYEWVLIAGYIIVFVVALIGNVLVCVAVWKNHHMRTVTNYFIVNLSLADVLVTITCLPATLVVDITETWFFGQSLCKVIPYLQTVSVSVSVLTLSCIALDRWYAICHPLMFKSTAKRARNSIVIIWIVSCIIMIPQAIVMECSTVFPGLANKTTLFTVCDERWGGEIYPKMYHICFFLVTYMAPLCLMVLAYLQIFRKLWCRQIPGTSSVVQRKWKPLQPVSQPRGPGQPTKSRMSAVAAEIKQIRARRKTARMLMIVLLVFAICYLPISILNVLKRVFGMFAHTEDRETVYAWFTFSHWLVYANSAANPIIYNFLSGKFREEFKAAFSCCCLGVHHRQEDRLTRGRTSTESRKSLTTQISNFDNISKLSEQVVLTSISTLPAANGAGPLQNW
Assay: IPOne (IP-1 accumulation) assay of orexin receptor agonist activity in CHO cells expressing human OX2R
Assay type: cell-based
Settings: for IC50: CHO cells expressing human OX2R, IP-One assay, 2 hours incubation, four parameter logistic fit, read-out: hOX2R_IP IC50; for Emax: CHO, percent activity at maximum tested concentration, relative to reference compound at 1 uM (100% activity) for human OX2R
Excerpt: The utility of the compounds in accordance with the present invention as orexin receptor OX1R and/or OX2R agonists may be readily determined without undue experimentation by methodology well known in the art. Both the OX1R and/or OX2R G-coupled protein receptors (GPCRs) couple through the Gαq signaling pathway, which ultimately promotes calcium mobilization via inositol triphosphate (IP3) production. […] The utility of the compounds in accordance with the present invention as orexin receptor OX1R and/or OX2R agonists may be determined utilizing this assay.
In a typical experiment, the OX1 and OX2 receptor agonist activity is determined in accordance with the following general experimental method. Chinese hamster ovary (CHO) cells expressing human OX1R and/or the human OX2R were grown in Iscove's modified DMEM containing glutaMAX™, 1% G418, 100 U/mL penicillin, 100 μg/mL streptomycin and 10% heat-inactivated qualified fetal bovine serum (FBS). […] During this incubation, IP-one detection reagents were prepared (38:1:1 lysis buffer:D2:AB-cryptate reagents).
For each compound, data were fit to a four parameter logistic fit (ActivityBase software) and the EC50 was reported as the inflection point of the resulting curve. Percent effect for each test compound was determined as the percentage of sample raw value/mean max effect, where the mean max effect was derived from the mean raw value of 32 control wells per assay plate (using Orexin A (cat #003-30) at 1 μM for human OX1R and a reference compound at 1 uM with 100% activity previously established by comparison to Orexin A for human OX2R). The intrinsic orexin receptor agonist activity of a compound which may be used in the present invention may be determined by these assays.

Row | Compound | IC50 [nM] | Emax [%]
1 | CC(C)C(=O)N1[C@H](C)CN(S(=O)(=O)c2ccccc2)C[C@@H]1C(=O)NCc1ccc(-c2ccco2)cc1F (relative stereo) [Example 32, cis-N-(2-fluoro-4-(furan-2-yl)benzyl)-1-isobutyryl-6-methyl-4-(phenylsulfonyl)piperazine-2-carboxamide] | 58.5 | 99.9
2 | CC[C@@H]1CN(S(=O)(=O)c2ccccc2)C[C@H](C(=O)NCc2ccc(-c3ccco3)cc2)N1C(=O)C(C)C (relative stereo) [Example 71, cis-6-ethyl-N-(4-(furan-2-yl)benzyl)-1-isobutyryl-4-(phenylsulfonyl)piperazine-2-carboxamide] | 244 | 100
3 | CCC(=O)N1CCN(S(=O)(=O)c2ccccc2)CC1C(=O)NCc1ccc2ccccc2c1 (centres unmarked) [Example 10-2, N-(naphthalen-2-ylmethyl)-4-(phenylsulfonyl)-1-propionylpiperazine-2-carboxamide] | 8900 | 97.4
4 | Cc1ccsc1C(=O)N1CCN(S(=O)(=O)c2ccccc2)CC1C(=O)NCc1ccc2ccccc2c1 (centres unmarked) [Example 10-12, 1-(3-methylthiophene-2-carbonyl)-N-(naphthalen-2-ylmethyl)-4-(phenylsulfonyl)piperazine-2-carboxamide] | 2430 | 89.4
5 | CC(C)C(=O)N1[C@H](C)CN(S(=O)(=O)c2ccccc2)C[C@@H]1C(=O)NCc1ccc(-c2ccccc2)cc1 (relative stereo) [Example 19-3, cis-N-([1,1′-biphenyl]-4-ylmethyl)-1-isobutyryl-6-methyl-4-(phenylsulfonyl)piperazine-2-carboxamide] | 68.9 | 87.1
6 | CC(C)C(=O)N1[C@H](C)CN(S(=O)(=O)c2ccccc2)C[C@@H]1C(=O)NCc1ccc(CC(C)(F)F)cc1 (single isomer, unassigned) [Example 66] | 2230 | 97.9
7 | O=C(NCc1ccc2ccccc2c1)C1CN(S(=O)(=O)c2ccccc2)CCN1C(=O)c1nccs1 (centres unmarked) [Example 10-7, N-(naphthalen-2-ylmethyl)-4-(phenylsulfonyl)-1-(thiazole-2-carbonyl)piperazine-2-carboxamide] | 1870 | 98.9
8 | O=C(NCc1ccc2ccccc2c1)C1CN(S(=O)(=O)c2ccccc2)CCN1C(=O)c1ccsc1 (centres unmarked) [Example 10-8, N-(naphthalen-2-ylmethyl)-4-(phenylsulfonyl)-1-(thiophene-3-carbonyl)piperazine-2-carboxamide] | 4670 | 90
9 | CC(C)C(=O)N1[C@H](C)CN(S(=O)(=O)c2ccccc2)C[C@@H]1C(=O)NCc1ccc(OC(C)(F)F)cc1 (relative stereo) [Example 19-4, cis-N-(4-(1,1-difluoroethoxy)benzyl)-1-isobutyryl-6-methyl-4-(phenylsulfonyl)piperazine-2-carboxamide] | 70.2 | 101
10 | CC(C)C(=O)N1C(C(=O)NCc2ccc(-c3ccco3)cc2)CN(S(=O)(=O)c2ccccc2)CC1(C)C (centres unmarked) [Example 83, N-(4-(furan-2-yl)benzyl)-1-isobutyryl-6,6-dimethyl-4-(phenylsulfonyl)piperazine-2-carboxamide] | 93.9 | 89.9
11 | CC(C)C(=O)N1[C@H](C)CN(S(=O)(=O)c2ccccc2)C[C@@H]1C(=O)NCc1ccc2ccccc2c1 (relative stereo) [Example 19-1, cis-1-isobutyryl-6-methyl-N-(naphthalen-2-ylmethyl)-4-(phenylsulfonyl)piperazine-2-carboxamide] | 245 | 100
12 | CC(C)C(=O)N1[C@H](C)CN(S(=O)(=O)c2ccccc2)C[C@@H]1C(=O)NCc1ccc(-c2ncco2)cc1 (relative stereo) [Example 19-8, cis-1-isobutyryl-6-methyl-N-(4-(oxazol-2-yl)benzyl)-4-(phenylsulfonyl)piperazine-2-carboxamide] | 146 | 99.5
13 | CCC(F)(F)Oc1ccc(CNC(=O)[C@H]2CN(S(=O)(=O)c3ccccc3)C[C@@H](C)N2C(=O)C(C)C)cc1 (single isomer, unassigned) [Example 61, cis-N-(4-(1,1-difluoropropoxy)benzyl)-1-isobutyryl-6-methyl-4-(phenylsulfonyl)piperazine-2-carboxamide] | 100 | 93.2
14 | O=C(NCc1ccc2ccccc2c1)C1CN(S(=O)(=O)c2ccccc2)CCN1C(=O)c1cccs1 (centres unmarked) [Example 6, N-(naphthalen-2-ylmethyl)-4-(phenylsulfonyl)-1-(thiophene-2-carbonyl)piperazine-2-carboxamide] | 2260 | 94.3
15 | CC(C)C(=O)N1[C@H](C)CN(S(=O)(=O)c2ccccc2)C[C@@H]1C(=O)NCc1ccc(-n2nccn2)cc1 (relative stereo) [Example 19-7, cis-N-(4-(2H-1,2,3-triazol-2-yl)benzyl)-1-isobutyryl-6-methyl-4-(phenylsulfonyl)piperazine-2-carboxamide] | 82.2 | 101
16 | CC(C)C(=O)N1[C@H](C)CN(S(=O)(=O)c2ccccc2)C[C@@H]1C(=O)NCc1ccc(-c2ccco2)c(F)c1 (relative stereo) [Example 26, cis-N-(3-fluoro-4-(furan-2-yl)benzyl)-1-isobutyryl-6-methyl-4-(phenylsulfonyl)piperazine-2-carboxamide] | 11.2 | 100
17 | O=C(NCc1ccc2ccccc2c1)C1CN(S(=O)(=O)c2ccccc2)CCN1C(=O)C1CCC1 (centres unmarked) [Example 10-6, 1-(cyclobutanecarbonyl)-N-(naphthalen-2-ylmethyl)-4-(phenylsulfonyl)piperazine-2-carboxamide] | 5000 | 96.8

Next, values leading:

Row | IC50 [nM] | Emax [%] | Compound
18 | 6570 | 82.7 | Cc1ccccc1S(=O)(=O)N1CCN(C(=O)c2cccs2)C(C(=O)NCc2ccc3ccccc3c2)C1 (centres unmarked) [Example 89-3, 4-[(2-methylphenyl)sulfonyl]-N-[(naphthalen-2-yl)methyl]-1-(thiophene-2-carbonyl)piperazine-2-carboxamide]
19 | 121 | 100 | CC(C)C(=O)N1[C@H](C)CN(S(=O)(=O)c2ccccc2)C[C@@H]1C(=O)NCc1ccc(-c2ccccn2)cc1 (relative stereo) [Example 42-1, cis-1-isobutyryl-6-methyl-4-(phenylsulfonyl)-N-(4-(pyridin-2-yl)benzyl)piperazine-2-carboxamide]
20 | 5030 | 94.5 | O=C(NCc1ccc2ccccc2c1)C1CN(S(=O)(=O)c2ccccc2F)CCN1C(=O)c1cccs1 (centres unmarked) [Example 89-11, 4-[(2-fluorophenyl)sulfonyl]-N-[(naphthalen-2-yl)methyl]-1-(thiophene-2-carbonyl)piperazine-2-carboxamide]
21 | 5720 | 60.1 | Cc1ccc(S(=O)(=O)N2CCN(C(=O)c3cccs3)C(C(=O)NCc3ccc4ccccc4c3)C2)cc1 (centres unmarked) [Example 89-1, N-(naphthalen-2-ylmethyl)-1-(thiophene-2-carbonyl)-4-tosylpiperazine-2-carboxamide]
22 | 6090 | 67.5 | N#Cc1cccc(S(=O)(=O)N2CCN(C(=O)c3cccs3)C(C(=O)NCc3ccc4ccccc4c3)C2)c1 (centres unmarked) [Example 89-6, 4-[(3-cyanophenyl)sulfonyl]-N-[(naphthalen-2-yl)methyl]-1-(thiophene-2-carbonyl)piperazine-2-carboxamide]
23 | 144 | 98.3 | CC(C)C(=O)N1[C@H](C)CN(S(=O)(=O)c2ccccc2)C[C@@H]1C(=O)NCc1ccc(-c2ccco2)c(C#N)c1 (relative stereo) [Example 47-2, cis-N-(3-cyano-4-(furan-2-yl)benzyl)-1-isobutyryl-6-methyl-4-(phenylsulfonyl)piperazine-2-carboxamide]
24 | 5280 | 75.5 | O=C(NCc1ccc2ccccc2c1)C1CN(S(=O)(=O)c2ccccc2Cl)CCN1C(=O)c1cccs1 (centres unmarked) [Example 89-4, 4-[(2-chlorophenyl)sulfonyl]-N-[(naphthalen-2-yl)methyl]-1-(thiophene-2-carbonyl)piperazine-2-carboxamide]
25 | 8710 | 75.9 | COc1cccc(S(=O)(=O)N2CCN(C(=O)c3cccs3)C(C(=O)NCc3ccc4ccccc4c3)C2)c1 (centres unmarked) [Example 89-8, 4-[(3-methoxyphenyl)sulfonyl]-N-[(naphthalen-2-yl)methyl]-1-(thiophene-2-carbonyl)piperazine-2-carboxamide]
